This is an account of results in US20260248832A1, “COMPOSITION COMPRISING CYTIDINE ANALOGS AND USES AND METHODS THEREOF” (UNIVERSITÄT HEIDELBERG, priority 2022, published 2026).

Each structure is given as a SMILES string. In brackets after ≈: the same amount, converted by molar mass.

Usually solubility stands for the dissolved amount per volume that the medium holds.

What all share (assay type): physicochemical
Data set [1] in a line: Stability of decitabine in aqueous media (HPLC). The settings on record: DMSO stock mixed 1:2 with 20 mM ammonium acetate pH 6.8; room temperature (about 25° C.); up to 14 days. As for the experimental part: (§1) Chem Res Toxicol 2009; 22 (6): 1194-204.
(§2) • 1. […] Immediate Injection • 3. […] Chem Res Toxicol 2009; 22 (6): 1194-204.
To test the stability of β-decitabine in an aqueous medium, two stock solutions of β-decitabine in DMSO were prepared and mixed 1:2 with the HPLC mobile phase (20 mM ammonium acetate pH 6.8). The samples were stored at room temperature (about 25° C.) and their content of β-decitabine, which is considered to represent the active anomer of decitabine, was measured for up to 14 days.

A short description of data set [2]: Solubility of decitabine in different non-aqueous media. Particulars: DMSO. The method, then: Due to the unsuitability of aqueous media, different non-aqueous media were tested with regard to the solubility of decitabine in the non-aqueous media. As decitabine is a nucleoside, several polar, water-free solvents, that would be well suited for further formulation experiments, were selected to determine the solubility of decitabine. […] Therefore, the DMSO stock was chosen as the next candidate for stability and formulation testing.

Data set [3] is described as follows: Long-term stability of decitabine in DMSO (HPLC). Particulars: 3 mM stock in DMSO; room temperature and 2-8° C.; almost three months. As for the experimental part:
as §1, §2
A 3 mM stock solution of decitabine in DMSO was prepared and one aliquot each was stored at room temperature and at 2-8° C. Its β-decitabine concentration was determined by HPLC for almost three months.

For the compound `Nc1ncn([C@H]2C[C@H](O)[C@@H](CO)O2)c(=O)n1` [decitabine, 5-aza-2′-deoxycytidine], the “stability of β-decitabine in aqueous medium” value in data set [1] is reported as “observed instability”. For the same compound, the solubility in data set [2] (organic solvent or mixture) is about 46 mg/mL (≈ 202 mM). The “solubility of decitabine for relevant dosage strengths” value in data set [2] (four tested solvents: glycerol, PEG 300, absolute ethanol) was “only DMSO showed sufficient solubility”. In addition, the “change in β-decitabine concentration in DMSO” value in data set [3] was “almost no change”.
